Experimental data from ChEMBL document CHEMBL2073754, “Cotransport of reduced glutathione with bile salts by MRP4 (ABCC4) localized to the basolateral hepatocyte membrane” (Hepatology, 2003).

What was measured:
Assay type in all cases: functional, cell membranes, Membrane vesicle
Parameters in all cases: scale not given: the % may be the effect or the level left
MRP4 (ABCC4) [1] = molecular target: T1, MRP4 (ABCC4) (Homo sapiens, UniProt O15439); experiment: TP_TRANSPORTER: inhibition of Taurocholate uptake in the presence of Dehydroepiandrosterone-3-sulfate at a concentration of 5uM in membrane vesicles from MRP4-expressing V79 cells; conditions: hamster, probe taurocholate, read-out: Activity
T1 sequence (O15439 whole entry): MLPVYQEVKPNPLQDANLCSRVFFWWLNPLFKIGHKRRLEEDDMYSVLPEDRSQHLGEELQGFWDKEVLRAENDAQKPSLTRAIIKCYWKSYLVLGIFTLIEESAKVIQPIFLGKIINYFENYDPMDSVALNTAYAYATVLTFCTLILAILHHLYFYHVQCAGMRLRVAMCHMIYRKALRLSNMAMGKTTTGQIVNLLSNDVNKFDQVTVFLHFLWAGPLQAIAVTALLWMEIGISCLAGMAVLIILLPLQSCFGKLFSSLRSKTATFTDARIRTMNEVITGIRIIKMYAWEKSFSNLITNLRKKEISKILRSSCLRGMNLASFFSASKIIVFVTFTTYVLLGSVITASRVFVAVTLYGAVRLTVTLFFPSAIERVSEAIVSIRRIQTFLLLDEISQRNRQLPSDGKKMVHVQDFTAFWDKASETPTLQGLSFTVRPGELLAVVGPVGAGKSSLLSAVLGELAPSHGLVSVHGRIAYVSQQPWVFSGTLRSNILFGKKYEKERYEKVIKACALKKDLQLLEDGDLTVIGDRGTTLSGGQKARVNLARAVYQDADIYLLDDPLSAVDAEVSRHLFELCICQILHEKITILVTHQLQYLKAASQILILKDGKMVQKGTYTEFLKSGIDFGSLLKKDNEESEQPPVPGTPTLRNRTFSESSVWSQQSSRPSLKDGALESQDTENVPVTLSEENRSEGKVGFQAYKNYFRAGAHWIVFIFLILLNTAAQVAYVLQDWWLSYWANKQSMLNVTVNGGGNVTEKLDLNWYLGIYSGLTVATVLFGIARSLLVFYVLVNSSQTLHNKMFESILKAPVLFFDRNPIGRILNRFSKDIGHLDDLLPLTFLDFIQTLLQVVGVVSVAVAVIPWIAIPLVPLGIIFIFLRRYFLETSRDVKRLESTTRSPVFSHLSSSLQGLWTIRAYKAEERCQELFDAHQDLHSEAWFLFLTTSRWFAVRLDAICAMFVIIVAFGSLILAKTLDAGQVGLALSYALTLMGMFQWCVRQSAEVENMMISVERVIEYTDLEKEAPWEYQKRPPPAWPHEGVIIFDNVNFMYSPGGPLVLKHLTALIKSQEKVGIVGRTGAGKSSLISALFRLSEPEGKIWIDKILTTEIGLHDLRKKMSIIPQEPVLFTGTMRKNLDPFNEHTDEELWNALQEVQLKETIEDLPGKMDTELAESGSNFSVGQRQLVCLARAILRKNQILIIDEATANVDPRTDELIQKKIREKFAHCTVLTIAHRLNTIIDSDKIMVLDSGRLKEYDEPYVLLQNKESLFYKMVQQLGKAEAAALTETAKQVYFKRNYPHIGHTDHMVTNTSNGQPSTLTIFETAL

MRP4 (ABCC4) [2] = molecular target: T1, MRP4 (ABCC4); experiment: TP_TRANSPORTER: inhibition of Taurocholate uptake in the presence of Methotrexate at a concentration of 20uM in membrane vesicles from MRP4-expressing V79 cells; conditions: hamster, probe taurocholate, read-out: Activity
[3] = molecular target: T2, ATP-binding cassette sub-family C member 4 (Homo sapiens, UniProt O15439); experiment: TP_TRANSPORTER: inhibition of Taurocholate uptake in the presence of MK-571 at a concentration of 20uM in membrane vesicles from MRP4-expressing V79 cells; conditions: hamster, v79, 20 µM
T2 sequence (O15439 whole entry): T1 sequence (O15439 whole entry)

MRP4 (ABCC4) [4] = molecular target: T1, MRP4 (ABCC4); experiment: TP_TRANSPORTER: inhibition of Taurocholate uptake by Taurochenodeoxycholate at a concentration of 20uM in membrane vesicles from MRP4-expressing V79 cells; conditions: hamster, probe taurocholate, read-out: Activity
MRP4 (ABCC4) [5] = molecular target: T1, MRP4 (ABCC4); experiment: TP_TRANSPORTER: inhibition of Taurocholate uptake in the presence of Dipyridamole at a concentration of 20uM in membrane vesicles from MRP4-expressing V79 cells; conditions: hamster, probe taurocholate, read-out: Activity
MRP4 (ABCC4) [6] = molecular target: T1, MRP4 (ABCC4); experiment: TP_TRANSPORTER: inhibition of Taurocholate uptake in the presence of Lithoglycocholate at a concentration of 20uM in membrane vesicles from MRP4-expressing V79 cells; conditions: hamster, probe taurocholate, read-out: Activity
MRP4 (ABCC4) [7] = molecular target: T1, MRP4 (ABCC4); experiment: TP_TRANSPORTER: inhibition of Taurocholate uptake in the presence of Tauroursodeoxycholate at a concentration of 20uM in membrane vesicles from MRP4-expressing V79 cells; conditions: hamster, probe taurocholate, read-out: Activity
[8] = molecular target: T2, ATP-binding cassette sub-family C member 4; experiment: TP_TRANSPORTER: inhibition of Taurocholate uptake in the presence of Lithocholate at a concentration of 20uM in membrane vesicles from MRP4-expressing V79 cells; conditions: hamster, v79, 20 µM
MRP4 (ABCC4) [9] = molecular target: T1, MRP4 (ABCC4); experiment: TP_TRANSPORTER: inhibition of Taurocholate uptake in the presence of Ursodeoxycholate at a concentration of 20uM in membrane vesicles from MRP4-expressing V79 cells; conditions: hamster, probe taurocholate, read-out: Activity
[10] = molecular target: T2, ATP-binding cassette sub-family C member 4; experiment: TP_TRANSPORTER: inhibition of Taurocholate uptake in the presence of Probenecid at a concentration of 20uM in membrane vesicles from MRP4-expressing V79 cells; conditions: hamster, v79, 20 µM
MRP4 (ABCC4) [11] = molecular target: T1, MRP4 (ABCC4); experiment: TP_TRANSPORTER: inhibition of Taurocholate uptake in the presence of Folate at a concentration of 20uM in membrane vesicles from MRP4-expressing V79 cells; conditions: hamster, probe taurocholate, read-out: Activity
MRP4 (ABCC4) [12] = molecular target: T1, MRP4 (ABCC4); experiment: TP_TRANSPORTER: inhibition of Taurocholate uptake in the presence of Glycocholate at a concentration of 20uM in membrane vesicles from MRP4-expressing V79 cells; conditions: hamster, probe taurocholate, read-out: Activity

Compound: C[C@]12CC[C@H](OS(=O)(=O)O)CC1=CC[C@@H]1[C@@H]2CC[C@]2(C)C(=O)CC[C@@H]12 [PRASTERONE SULFURIC ACID]
- activity at 5 µM (MRP4 (ABCC4) [1]): 34%

Compound: CN(Cc1cnc2nc(N)nc(N)c2n1)c1ccc(C(=O)N[C@@H](CCC(=O)O)C(=O)O)cc1 [METHOTREXATE]
- activity at 20 µM (MRP4 (ABCC4) [2]): 39%

Compound: CN(C)C(=O)CCSC(SCCC(=O)O)c1cccc(/C=C/c2ccc3ccc(Cl)cc3n2)c1 (configuration not stated) [MK-571]
- Activity [3]: 9%

Compound: C[C@H](CCC(=O)NCCS(=O)(=O)O)[C@H]1CC[C@H]2[C@@H]3[C@H](O)C[C@@H]4C[C@H](O)CC[C@]4(C)[C@H]3CC[C@]12C [TAUROCHENODEOXYCHOLATE]
- activity at 20 µM (MRP4 (ABCC4) [4]): 11%

Compound: OCCN(CCO)c1nc(N2CCCCC2)c2nc(N(CCO)CCO)nc(N3CCCCC3)c2n1 [DIPYRIDAMOLE]
- activity at 20 µM (MRP4 (ABCC4) [5]): 32%

Compound: C[C@H](CCC(=O)NCC(=O)O)[C@H]1CC[C@H]2[C@@H]3CC[C@@H]4C[C@H](O)CC[C@]4(C)[C@H]3CC[C@]12C [LITHOGLYCOCHOLATE]
- activity at 20 µM (MRP4 (ABCC4) [6]): 9%

Compound: C[C@H](CCC(=O)NCCS(=O)(=O)O)[C@H]1CC[C@H]2[C@@H]3[C@@H](O)C[C@@H]4C[C@H](O)CC[C@]4(C)[C@H]3CC[C@]12C [TAURURSODIOL]
- activity at 20 µM (MRP4 (ABCC4) [7]): 26%

Compound: C[C@H](CCC(=O)O)[C@H]1CC[C@H]2[C@@H]3CC[C@@H]4C[C@H](O)CC[C@]4(C)[C@H]3CC[C@]12C [LITHOCHOLIC ACID]
- Activity [8]: 68%

Compound: C[C@H](CCC(=O)O)[C@H]1CC[C@H]2[C@@H]3[C@@H](O)C[C@@H]4C[C@H](O)CC[C@]4(C)[C@H]3CC[C@]12C [URSODIOL]
- activity at 20 µM (MRP4 (ABCC4) [9]): 18%

Compound: CCCN(CCC)S(=O)(=O)c1ccc(C(=O)O)cc1 [PROBENECID]
- Activity [10]: 52%

Compound: Nc1nc2ncc(CNc3ccc(C(=O)N[C@@H](CCC(=O)O)C(=O)O)cc3)nc2c(=O)[nH]1 [FOLIC ACID]
- activity at 20 µM (MRP4 (ABCC4) [11]): 63%

Compound: C[C@H](CCC(=O)NCC(=O)O)[C@H]1CC[C@H]2[C@@H]3[C@H](O)C[C@@H]4C[C@H](O)CC[C@]4(C)[C@H]3C[C@H](O)[C@]12C [GLYCOCHOLIC ACID]
- activity at 20 µM (MRP4 (ABCC4) [12]): 45%
